Test results published in PubChem BioAssay AID2305 (GlaxoSmithKline (GSK), 2010).
“And” between values parts separate entries of the source, which are not always exact repeats. Equal values may be shown once.

These compounds were tested on P. falciparum 3D7 growth, pLDH absorbance (assay: P. falciparum 3D7 growth inhibition, dose response, strain 3D7 (AID 2305)).
`O=C(Cn1nc(Br)nc1[N+](=O)[O-])NCC1CCCCC1` showed an IC50 of 1100 nM.
For `O=C(Nc1ccc(-c2cccc(CN3CCC(O)CC3)c2)cc1)c1cccc(Cl)c1`, the IC50 was 830 nM.
`CC(C)(C)c1ccc(-c2cc3c(ccc4nc(N)nc(N)c43)[nH]2)cc1` showed an IC50 of 110 nM.
In the case of `CC(C)(C)OC(=O)NCc1ccc(Nc2nnc(-c3ccc(OCC(=O)NC[C@@H]4CC[C@H]5C[C@@H]4C5(C)C)c([N+](=O)[O-])c3)o2)cc1`, the IC50 is reported as 910 nM.
Compound `O=C(Nc1cccc(CN2CCCN(Cc3cccc(Cl)c3)CC2)c1)c1ccc(Br)cc1` has an IC50 of 940 nM.
`O=C(Nc1cccc(Cl)c1Cl)Nc1ccnc2ccccc12` showed an IC50 of 750 nM.
Compound `O=C(NC(CCCN1CCC2(CC1)OCc1ccccc12)c1ccc(Cl)c(Cl)c1)c1cc(C(F)(F)F)cc(C(F)(F)F)c1` (stereo not drawn) has an IC50 of 540 nM.
In the case of `CN(C)CCC1CCCc2ccc(NC(=O)Nc3cccc(Cl)c3Cl)cc21` (stereo not drawn), the IC50 is reported as 960 nM.
For `Oc1ccc(CCNCCCCCCNCCc2ccc(Cl)cc2)c(Cl)c1O`, the IC50 was 780 nM.
`CCOC(=O)c1cn(CC)c2cc(N3CCCCCC3)c(F)cc2c1=O` gave an IC50 of 410 nM.
`Cc1ccc(C(NC(=O)Cc2ccccc2)c2ccc3cccnc3c2O)cc1` (stereo not drawn) gave an IC50 of 620 nM.
`Cc1ccc(/C=C/C(=O)NC2CCC(CN3CCC(c4c[nH]c5ccccc45)CC3)CC2)cc1C` (stereo not drawn) was tested, and the IC50 was 820 nM and 830 nM.
In the case of `CN(C)c1ccc(-c2csc(C(=O)NC3CCCCN(Cc4ccc(C(C)(C)C)cc4)C3)c2)cc1` (stereo not drawn), the IC50 is reported as 1110 nM.
`CCC(C)c1ccc(NC(=O)C(C)c2ccc([N+](=O)[O-])cc2)cc1` (stereo not drawn) was tested, and the IC50 was 180 nM.
With `CCN(CC)CCCN(C(=O)c1cc2c(C)nn(-c3ccccc3)c2s1)c1nc(-c2ccc(OC)cc2)cs1` the IC50 was 1150 nM.
With `CCCc1ccc(S(=O)(=O)NC2CCN(C(=O)Nc3ccc(I)cc3)CC2)cc1` the IC50 was 870 nM.
Work on `Cc1cc(C(=O)Nc2ccc(C)c(-c3nc(N(C(=O)c4ccc(F)c(C)c4)C4CCNCC4)nc4c3ccc(=O)n4-c3c(F)cccc3F)c2)ccc1F` yielded an IC50 of 320 nM.
Work on `O=C(NC1CCN(CC2(c3ccccc3F)CCCC2)CC1)c1ccn[nH]1` yielded an IC50 of 1000 nM.
With `CC(C)c1ccc(NC(=O)Nc2ccc(Cn3ncc(N4CCCNCC4)c(Cl)c3=O)cc2)cc1` the IC50 was 1050 nM.
`N#Cc1ccc(CN2CCC(Oc3ccc(NC(=O)c4cccs4)cc3)CC2)cc1` showed an IC50 of 1030 nM.
`COc1ccc(CNC2CCN(C)CC2)cc1-c1ccc(S(=O)(=O)NC2CCC2)s1` showed an IC50 of 730 nM.
`Clc1ccc(-c2cnc3ccc(NCCc4cccnc4)nn23)cc1` was tested, and the IC50 was 860 nM.
Compound `CC1(C)CCC(C)(C)c2c1ccc(C1CCN(CCCCNC(=O)c3ccc(-c4ccc(C#N)cc4)cc3)CC1)c2OCC(N)=O` has an IC50 of 420 nM.
With `CCNCCCC(C)Nc1ccnc2cc(Cl)ccc12` (stereo not drawn) the IC50 was 200 nM.
Work on `CC(Cc1ccc(OCCN2CCN(c3cccc(C(F)(F)F)c3)CC2)cc1)NCC(O)c1cccc(C(F)(F)F)c1` (stereo not drawn) yielded an IC50 of 180 nM.
For `COc1ccc(NC(=O)c2ccc(Br)c(C)c2)cc1N1CCN(CCCCc2ccccc2)CC1`, the IC50 was 820 nM.
Compound `Cc1cccc2[nH]c(-c3cccc(-c4cccc(CNCc5ccc(S(C)(=O)=O)cc5)c4)c3)nc12` has an IC50 of 300 nM.
Work on `COc1ccc2c(ccc3c2ncc2c(=O)n(-c4ccccc4)[nH]c23)c1` yielded an IC50 of 520 nM.
In the case of `Cc1cc(Nc2ccncc2)n2nc(C)c(-c3ccc(Cl)cc3)c2n1`, the IC50 is reported as 160 nM.
`O=C(NCc1ccc(C(=O)NC2CCCCC2)cc1)c1ccc(O)c(-c2ccc(Cl)c(Cl)c2)c1` gave an IC50 of 880 nM.
`COc1cc(NC(=O)c2ccc(-c3ccccc3)cc2)ccc1OCCCN1CCC(c2ccccc2)CC1` showed an IC50 of 750 nM.
`O=C(NCCCCN1CCN(c2ccc3c(c2)CCC3)CC1)c1ccc(NC(=O)c2ccc(Cl)cc2)cc1` was tested, and the IC50 was 680 nM.
For `Cc1cccc(C(=O)NCCCN2CCC(NC(=O)/C=C/c3ccc(Cl)c(Cl)c3)CC2)c1`, the IC50 was 1700 nM.
`O=C(Cc1cccc(O)c1)Nc1ccc(-c2cccc(-c3nc4ccc(C(F)(F)F)cc4[nH]3)c2)cc1` gave an IC50 of 980 nM.
`CCOc1cc(C(=O)NCCN(CC)c2cccc(C)c2)ccc1-c1nc2ccc(Cl)cc2[nH]1` was tested, and the IC50 was 810 nM.
`CC1CN(c2ccc(NC(=O)c3cccs3)cc2)CCN1Cc1cccc(F)c1` (stereo not drawn) showed an IC50 of 490 nM.
`NC1=NC(c2ccccc2)(c2ccccc2)C(=O)N1CCOc1ccccc1` gave an IC50 of 840 nM.
Work on `NC1=NC2(CCCCC2)N(OCCOc2ccc(Cc3ccccc3)cc2)C(N)=N1` yielded an IC50 of 1130 nM.
`CCOC(=O)c1ccc(NC(=O)N(Cc2ccc(-c3ccc(CN4CCNCC4)cc3)cc2)C2CCN(Cc3ccccc3)CC2)cc1` showed an IC50 of 800 nM.
`CCOC(=O)N1CCN(C(=O)Nc2ccc(Cl)cc2)CC1` showed an IC50 of 1520 nM.
`CCOC(=O)c1cccc(NC(=O)Nc2cccc(-c3ncc(OCCCN)c4c3nc(-c3nonc3N)n4CC)c2)c1` gave an IC50 of 890 nM.
`Cc1cc(N[C@@H](Cc2ccccc2)C(=O)NCc2cccc(F)c2)nc(NCCc2ccccc2)n1` was tested, and the IC50 was 1020 nM.
`COc1ccccc1CC(C)NCC(O)c1cccc(Cl)c1` (stereo not drawn) showed an IC50 of 810 nM.
`CCCCN1CCN(Cc2cccc(NC(=O)c3ccc(Cl)c(Cl)c3)c2)CC1` gave an IC50 of 1160 nM.
With `COc1ccc(C(O)CNC(C)CCc2ccc(F)cc2)cc1C(F)(F)F` (stereo not drawn) the IC50 was 750 nM.
`O=C(Nc1ccc(Cl)c(Cl)c1)N1CCC(NCc2cccc([N+](=O)[O-])c2)CC1` gave an IC50 of 760 nM.
`O=C(Nc1ccc(F)c(Cl)c1)NC1CCN(c2ccnc3cc(Cl)ccc23)C1` (stereo not drawn) was tested, and the IC50 was 210 nM.
In the case of `COc1cc(Cc2cnc(N)nc2N)cc(OCCCCCCN)c1OC`, the IC50 is reported as 190 nM.
`COc1ccc2nccc([C@@H](O)CN3CC[C@H](NCc4nc5c(cc4F)SCC(=O)N5)[C@H](F)C3)c2c1` gave an IC50 of 730 nM.
For `O=C(/C=C/c1ccc(Cl)c(Cl)c1)NC1CCN(Cc2cccc(O)c2)CC1`, the IC50 was 880 nM.
`CN1CCN(CCCN(Cc2cccc(-c3ccc(CNCCc4ccccc4)cc3)c2)C(=O)c2cccs2)CC1` showed an IC50 of 720 nM.
`O=C(Nc1ccc(OC2CCN(Cc3ccsc3)C2)c(Cl)c1)c1cccs1` (stereo not drawn) was tested, and the IC50 was 960 nM.
For `COc1cc2c(cc1S(=O)(=O)c1ccc(OCc3ccc(Cl)cc3)cc1)CCN(Cc1ccc(NC(C)=O)s1)CC2`, the IC50 was 920 nM.
`Cc1cccc(C(=O)Nc2ccnc(N3CCCN(Cc4cccc(O)c4)CC3)c2)c1` was tested, and the IC50 was 1210 nM.
Compound `CCCc1c(C(=O)Nc2ccc3c(c2)CCN(C2CCC2)CC3)cnn1-c1ccc(Cl)cc1` has an IC50 of 860 nM.
`CNC(=O)c1ccccc1Nc1nc(Nc2ccc(N3CCN(C)CC3)nc2)ncc1C` was tested, and the IC50 was 1140 nM.
For `O=C(Nc1ccc(F)c(C(F)(F)F)c1)NC1CCN(CCCCCNC(=O)[C@@H]2C[C@H]2c2ccc(Cl)c(Cl)c2)CC1`, the IC50 was 660 nM.
For `CC1(C)N=C(N)N=C(N)N1OCCCOc1ccc(N)cc1`, the IC50 was 10 nM.
`CCc1c(CCNCCCCCCNCCc2ccc(OC)c(OC)c2CC)ccc(OC)c1OC` showed an IC50 of 730 nM.
`CC(Oc1ccc(Cl)cc1)C(=O)NCCC1CCN(CCCCCNC(=O)/C=C/c2ccc(Cl)c(Cl)c2)CC1` (stereo not drawn) gave an IC50 of 1020 nM.
For `CO[C@H](C)[C@H](NC(=O)[C@H](CC(C)C)[C@H](CCC(F)(F)F)N(O)C=O)C(=O)Nc1nccs1`, the IC50 was 110 nM.
`Cn1c(CN2CCC(N3CCc4cc(NC(=O)c5ccco5)ccc43)C2)cc2ccccc21` (stereo not drawn) gave an IC50 of 880 nM.
With `Cn1cc(Br)c(-c2cccc(Nc3ccnc4cc(-c5nccs5)ccc34)c2)n1` the IC50 was 980 nM.
For `CC[C@H](C)CNC(=O)c1ccnc(-c2ccc(CN3CCC(N4CCCC4)CC3)cc2)c1`, the IC50 was 890 nM.
Work on `O=c1ccc2ccc(F)cc2n1CCN1CCC(NCc2ccc(-c3ccccn3)s2)CC1` yielded an IC50 of 890 nM.
With `Cc1[nH]c(C)c(-c2ccc(C(=O)c3ccccc3)cc2)c(=O)c1Br` the IC50 was 780 nM.
With `CCCCn1c(C)c(C(=O)OCC)c2cc(OC(C)=O)c(Br)cc21` the IC50 was 630 nM.
With `COc1cc(OC)cc(-c2nnc(Sc3ccc(C#N)c([N+](=O)[O-])c3)n2C)c1` the IC50 was 940 nM.
Work on `COc1ccc(-c2cccc(NC(=O)c3ccc(C#N)cc3)c2)cc1CN1CCCN(C)CC1` yielded an IC50 of 760 nM.
`OCCN1CCN(Cc2cccc(-c3ccc(-c4nc5ccc(C(F)(F)F)cc5[nH]4)cc3)c2)CC1` showed an IC50 of 560 nM.
`Cc1[nH]c(C)c(-c2ccc(OCc3ccc(F)cc3)nc2)c(=O)c1Br` showed an IC50 of 200 nM.
`O=C(/C=C/c1ccc(Cl)c(Cl)c1)NCCCCCN1CCC(NC(=O)Nc2cc(F)ccc2F)CC1` was tested, and the IC50 was 700 nM.
Work on `CCN(CC)CC(O)c1cc(-c2ccc(OC)cc2)nc2cc(Cl)ccc12` (stereo not drawn) yielded an IC50 of 70 nM.
`CCCCCN1CCCC(NS(=O)(=O)c2cccc(C(=O)Nc3cccc(C(F)(F)F)c3)c2)C1` (stereo not drawn) showed an IC50 of 1070 nM.
`CC[C@H](C)CNC(=O)c1ccnc(-c2cccc(CN3CCC(N4CCCC4)CC3)c2)c1` showed an IC50 of 850 nM.
Compound `CCN(CC)CCN(Cc1ccc(-c2ccc(C(F)(F)F)cc2)cc1)C(=O)Cn1c(CCc2c(F)cc(F)cc2F)nc(=O)c2ccccc21` has an IC50 of 1040 nM.
In the case of `Cc1oc(-c2cccc(Oc3ccccc3)c2)nc1CN(Cc1cnn(C)c1)C(C)C`, the IC50 is reported as 1090 nM.
With `COc1ccc(-c2cnc(NCc3ccccc3)nc2)cc1CNC1CCN(C)CC1` the IC50 was 780 nM.
For `COC(=O)c1cccc(NC(=O)NC2CCN(c3ccnc(Nc4ccc(OC)cc4)n3)C2)c1` (stereo not drawn), the IC50 was 470 nM.
Work on `Oc1ccccc1CN(CCCN(Cc1ccccn1)Cc1ccccc1O)Cc1ccccn1` yielded an IC50 of 1060 nM.
`CC(C)(C)c1ccc(CNC(=O)/C=C/c2ccc(CNC3CCNCC3)cc2)cc1` gave an IC50 of 1090 nM.
`N#CCCN1CCN(Cc2cccc(-c3ccc(-c4nc5ccccc5[nH]4)cc3)c2)CC1` showed an IC50 of 1020 nM.
`O=C(Nc1ccc(-c2cccc(-c3nc4ccc(C(F)(F)F)cc4[nH]3)c2)cc1)c1ccncc1` gave an IC50 of 660 nM.
`COc1ccc(CN2CCC(NCc3cccc(C(F)(F)F)c3)CC2)cc1` showed an IC50 of 750 nM.
Compound `COc1ccc(CCNC(=O)c2ccc(-n3cc(NC(=O)c4cccnc4)cn3)cc2)cc1OC` has an IC50 of 1070 nM.
For `Cn1cnc2c(Nc3ccncc3)nc(-c3ccc4c(c3)OCO4)nc21`, the IC50 was 1110 nM.
Work on `CC(C)c1cccc(OCC2CCN(c3ncc(C(=O)NC4CC4)cc3Cl)CC2)c1` yielded an IC50 of 680 nM.
`COc1ccc(NC(=O)c2ccc(OCCCCCCCOc3ccc(C(=O)Nc4ccc(OC)c(N5CCN(C)CC5)c4)cc3)cc2)cc1N1CCN(C)CC1` showed an IC50 of 600 nM.
Compound `COc1cc2nc(NCCC(C)C)n3nc(-c4ccccc4)nc3c2cc1OC` has an IC50 of 420 nM.
`CCOc1ccccc1C=CC(=O)Nc1ccc2nc(N3CCN(C)CC3)cc(C)c2c1` gave an IC50 of 270 nM.
With `CCCCNc1nc(NCCCC)c2c(C)c(Cc3ccccc3)c(NCCCC)nc2n1` the IC50 was 890 nM.
Work on `Cc1nc2ccc(NC(=O)Nc3ccnc4ccc(C(F)(F)F)cc34)cc2o1` yielded an IC50 of 910 nM.
`CC(=O)N1N=C(c2ccc(F)cc2)Sc2c1nc(-c1ccccc1)n2C(C)=O` was tested, and the IC50 was 650 nM.
With `Cc1nc(N)nc(N)c1CCCOc1cccc(Cl)c1` the IC50 was 480 nM.
`CCCCCC(C)C(C)c1cc(O)c2c(c1)OC(C)(C)CC2=Cc1ccncc1` (stereo not drawn) was tested, and the IC50 was 210 nM.
Compound `Cc1ccc(C(=O)Nc2cccc(CN3CCCN(Cc4ccc(O)cc4)CC3)c2)s1` has an IC50 of 1000 nM.
In the case of `Cc1cc(NCCC(=O)NCCOc2ccccc2)nc(NCCOc2ccccc2)n1`, the IC50 is reported as 870 nM.
For `CCCCCc1cc(OCCN(C)C)cc2c1C(=O)CC(C)(C)O2`, the IC50 was 100 nM.
